Results: the supplement of paper PMC10627819

Key:
[1] = test system: B. subtilis 168; experiment: Bliss interaction score (quartile over a dose matrix) (fitness difference); higher = more antagonism (negative = synergy)
In short: (§1)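 The Bliss score is observed minus expected fitness under the product model, reported as quartiles over technical, biological and donor/recipient replicates. Fitness is the OD595 at entry into stationary phase divided by the plate's robust no-drug mean and capped at 1. Single-drug fitness was inferred from combination data.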

[2] = test system: S. pneumoniae D39V; experiment: as above
In short: as §1

[3] = test system: S. aureus Newman; experiment: as above
In short: as §1

[4] = test system: S. aureus DSM 20231; experiment: as above
In short: as §1

[5] = test system: S. pneumoniae D39V; experiment: fitness (endpoint OD595 vs no drug) (fraction); higher = more growth
In short: (§2)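 Cultures at OD595 0.01 were dispensed into 384-well plates in TSB, LB Lennox or CY and incubated at 37 °C. Every 30 min for 14 h, OD595 was read and corrected by the first reading. Fitness is the optical density at entry into stationary phase relative to the robust mean of no-drug control wells, capped at 1.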

[6] = test system: S. aureus Newman; experiment: as above
In short: as §2

[7] = test system: S. aureus DSM 20231; experiment: as above
In short: as §2

[8] = first compound 1.5 µg/mL, partner 0.03125 µg/mL
[9] = first compound 1.5 µg/mL, partner 0.0625 µg/mL
[10] = first compound 1.5 µg/mL, partner 0.125 µg/mL
[11] = first compound 1.5 µg/mL, partner 0.25 µg/mL, one replicate
[12] = first compound 1.5 µg/mL, partner 0.5 µg/mL, one replicate
[13] = first compound 3 µg/mL, partner 0.03125 µg/mL
[14] = first compound 3 µg/mL, partner 0.0625 µg/mL
[15] = first compound 3 µg/mL, partner 0.125 µg/mL
[16] = first compound 3 µg/mL, partner 0.25 µg/mL, one replicate
[17] = first compound 3 µg/mL, partner 0.5 µg/mL, one replicate
[18] = first compound 6 µg/mL, partner 0.03125 µg/mL
[19] = first compound 6 µg/mL, partner 0.0625 µg/mL
[20] = first compound 6 µg/mL, partner 0.125 µg/mL
[21] = first compound 6 µg/mL, partner 0.25 µg/mL, one replicate
[22] = first compound 6 µg/mL, partner 0.5 µg/mL, one replicate
[23] = first compound 1.25 µg/mL, partner 0.1875 µg/mL
[24] = first compound 1.25 µg/mL, partner 0.375 µg/mL
[25] = first compound 2.5 µg/mL, partner 0.1875 µg/mL
[26] = first compound 2.5 µg/mL, partner 0.375 µg/mL
[27] = first compound 5 µg/mL, partner 0.1875 µg/mL
[28] = first compound 5 µg/mL, partner 0.375 µg/mL
[29] = first compound 5 µg/mL, partner 0.75 µg/mL
[30] = first compound 1.25 µg/mL, partner 0.75 µg/mL
[31] = first compound 2.5 µg/mL, partner 0.75 µg/mL
[32] = first compound 1.25 µg/mL, partner 0.0625 µg/mL
[33] = first compound 1.25 µg/mL, partner 0.125 µg/mL
[34] = first compound 2.5 µg/mL, partner 0.0625 µg/mL
[35] = first compound 2.5 µg/mL, partner 0.125 µg/mL
[36] = first compound 5 µg/mL, partner 0.0625 µg/mL
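For Bliss interaction score (quartile over a dose matrix) in this document: first quartile when negative (synergy) and third quartile when positive (antagonism).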

`C[n+]1ccc(-c2cc[n+](C)cc2)cc1` [Paraquat] + CN[C@H](CC(C)C)C(=O)N[C@H]1C(=O)N[C@@H](CC(N)=O)C(=O)N[C@H]2C(=O)N[C@H]3C(=O)N[C@H](C(=O)N[C@H](C(=O)O)c4cc(O)cc(O)c4-c4cc3ccc4O)[C@H](O)c3ccc(c(Cl)c3)Oc3cc2cc(c3O[C@@H]2O[C@H](CO)[C@@H](O)[C@H](O)[C@H]2O[C@H]2C[C@](C)(N)[C@H](O)[C@H](C)O2)Oc2ccc(cc2Cl)[C@H]1O [Vancomycin] gave a Bliss interaction score [1] of 0.0779, a Bliss interaction score [2] of 0.101 and a Bliss interaction score [3] of 0.0613. It also gave a Bliss interaction score [4] of 0.0505, a fitness [5, 8] of 0.998 and a fitness [5, 9] of 0.984. For the same molecule, the fitness [5, 10] was 0.855, the fitness [5, 11] was 0.18 and the fitness [5, 12] was 0.0697. The fitness [5, 13] was 1, the fitness [5, 14] was 0.994 and the fitness [5, 15] was 0.851. The fitness [5, 16] was 0.249, the fitness [5, 17] was 0.0334 and the fitness [5, 18] was ≥ 1. For the same molecule, the fitness [5, 19] was 0.974, the fitness [5, 20] was 0.891 and the fitness [5, 21] was 0.372. For the same molecule, the fitness [5, 22] was 0.129, the fitness [6, 23] was 0.933 and the fitness [6, 24] was 0.898. For the same molecule, the fitness [6, 25] was 0.911, the fitness [6, 26] was 0.898 and the fitness [6, 27] was 0.933. The fitness [6, 28] was 0.917, the fitness [6, 29] was 0.935 and the fitness [7, 23] was 0.908. The fitness [7, 24] was 0.956, the fitness [7, 30] was 0.963 and the fitness [7, 25] was 0.87. For the same molecule, the fitness [7, 26] was 0.986, the fitness [7, 31] was 0.969 and the fitness [7, 27] was 0.861. The fitness [7, 28] was ≥ 1 and the fitness [7, 29] was 0.964.
Molecule `C[n+]1ccc(-c2cc[n+](C)cc2)cc1` [Paraquat] + Cn1nnc(-c2ccc(-c3ccc(N4C[C@H](CO)OC4=O)cc3F)cn2)n1 [Tedizolid] has a Bliss interaction score [1] of 0.075, a Bliss interaction score [2] of -0.0684 and a Bliss interaction score [3] of -0.041. For the same molecule, the Bliss interaction score [4] was 0.0784, the fitness [5, 8] was 0.926 and the fitness [5, 9] was 0.948. It also gave a fitness [5, 10] of 0.86, a fitness [5, 11] of 0.796 and a fitness [5, 12] of 0.626. It also gave a fitness [5, 13] of 0.956, a fitness [5, 14] of 0.951 and a fitness [5, 15] of 0.846. It also gave a fitness [5, 16] of 0.786, a fitness [5, 17] of 0.603 and a fitness [5, 18] of 0.932. The fitness [5, 19] was 0.934, the fitness [5, 20] was 0.817 and the fitness [5, 21] was 0.808. For the same molecule, the fitness [5, 22] was 0.602, the fitness [6, 32] was 0.855 and the fitness [6, 33] was 0.762. For the same molecule, the fitness [6, 34] was 0.902, the fitness [6, 35] was 0.805 and the fitness [6, 36] was 0.843. For the same molecule, the fitness [7, 32] was 0.866, the fitness [7, 33] was 0.644 and the fitness ([7]; first compound 1.25 µg/mL, partner 0.25 µg/mL) was 0.117. The fitness [7, 34] was 0.803, the fitness [7, 35] was 0.583 and the fitness ([7]; first compound 2.5 µg/mL, partner 0.25 µg/mL) was 0.161. The fitness [7, 36] was 0.836, the fitness ([7]; first compound 5 µg/mL, partner 0.125 µg/mL) was 0.588 and the fitness ([7]; first compound 5 µg/mL, partner 0.25 µg/mL) was 0.137.
Work on `Cn1c2cccc(=O)c-2nc2ccccc21` [Pyocyanin] + CN[C@H](CC(C)C)C(=O)N[C@H]1C(=O)N[C@@H](CC(N)=O)C(=O)N[C@H]2C(=O)N[C@H]3C(=O)N[C@H](C(=O)N[C@H](C(=O)O)c4cc(O)cc(O)c4-c4cc3ccc4O)[C@H](O)c3ccc(c(Cl)c3)Oc3cc2cc(c3O[C@@H]2O[C@H](CO)[C@@H](O)[C@H](O)[C@H]2O[C@H]2C[C@](C)(N)[C@H](O)[C@H](C)O2)Oc2ccc(cc2Cl)[C@H]1O [Vancomycin] yielded a Bliss interaction score [1] of -0.0201, a Bliss interaction score [2] of 0.0635 and a Bliss interaction score [3] of 0.0784. For the same molecule, the Bliss interaction score [4] was 0.0758, the fitness ([5]; first compound 0.325 µg/mL, partner 0.03125 µg/mL) was ≥ 1 and the fitness ([5]; first compound 0.325 µg/mL, partner 0.0625 µg/mL) was 0.994. It also gave a fitness ([5]; first compound 0.325 µg/mL, partner 0.125 µg/mL) of 0.921, a fitness ([5]; first compound 0.325 µg/mL, partner 0.25 µg/mL, one replicate) of 0.584 and a fitness ([5]; first compound 0.325 µg/mL, partner 0.5 µg/mL, one replicate) of 0.314. For the same molecule, the fitness ([5]; first compound 0.65 µg/mL, partner 0.03125 µg/mL) was 0.962, the fitness ([5]; first compound 0.65 µg/mL, partner 0.0625 µg/mL) was 0.952 and the fitness ([5]; first compound 0.65 µg/mL, partner 0.25 µg/mL, one replicate) was 0.724. For the same molecule, the fitness ([5]; first compound 0.65 µg/mL, partner 0.5 µg/mL, one replicate) was 0.391, the fitness ([5]; first compound 1.3 µg/mL, partner 0.03125 µg/mL) was 0.686 and the fitness ([5]; first compound 1.3 µg/mL, partner 0.0625 µg/mL) was 0.651. It also gave a fitness [6, 23] of 0.907, a fitness [6, 24] of 0.899 and a fitness [6, 30] of 0.84. The fitness [6, 25] was 0.855, the fitness [6, 26] was 0.768 and the fitness [6, 29] was 0.393. It also gave a fitness [7, 23] of 0.796, a fitness [7, 24] of 0.856 and a fitness [7, 30] of 0.921. It also gave a fitness [7, 25] of 0.852, a fitness [7, 26] of 0.861 and a fitness [7, 31] of 0.934. The fitness [7, 27] was 0.659, the fitness [7, 28] was 0.745 and the fitness [7, 29] was 0.726.
